The values below come from patent publication US5770363A, “Methods for diagnosing human male infertility” (priority 1995, dated 1998).

Values joined by “and” are separate entries in the source; they are usually repeats but may differ in a detail not shown here. Equal entries are not always repeated. “Also recorded” adds a separate entry of the source. A value given as a limit tells only on which side of the number the result lay.

In data set [1] the test system is permeabilized human sperm. The data set is described as follows: DTT (XEIM) pretreatment of permeabilized human sperm before HSAA. In kind it is cell-based. The note with it: 50 mM DTT in XEIM, 45 minutes on ice. How it is done:
On the day that the diagnostic method is to be performed, the samples are incubated for 30 minutes at 37° C.; each sample is then suspended in 10 ml of nuclear isolation medium (NIM, 200 mM sucrose, 2.4 mM MgCl2, 10 mM Tris-Hcl and 5 mM maleic acid, pH 7.4). A sperm count is taken and an aliquot (containing 20 million sperm) is pelleted in a centrifuge for 10 minutes at 400×g, then resuspended in 10 ml of NIM containing 0.05% lysolecithin and 1 μg/ml soybean trypsin inhibitor. The mixture is kept at room temperature for 5 minutes and the sperm repelleted as before, then washed, first in NIM with 3% BSA and then with NIM containing 0.4% BSA, as described by Lohka and Masui^1. Sperm will finally be suspended in Xenopus Extract Isolation Medium (XEIM, 10 mM Tris-HCL, pH 7.5, 1.5 mM MgCl2, 100 mM KCl and 50 mM DTT) at a concentration of 25,000 sperm/μl and kept on ice (between 0° C. and 4° C.) for 45 minutes before mixing with the frog egg extract. […] Such may be the result of reducing the protamines that in mammalian sperm are cross-linked by intermolecular disulfide bonds.^67 […]

The test system of the next data set is rats. The note with it: cited from earlier work.
Data set [2] concerns human sperm nuclei. As to the kind of experiment: HSAA with frog egg extract ± aphidicolin (decondensation, recondensation, DNA synthesis of sperm nuclei). The data set is classed as cell-based. How it is done: A HSAA will be set up using normal control sperm. After addition of the sperm to the egg extract containing BrdUrd (10 μM, 92) in place of ^3 H-TTP, aliquots will be taken at 15 minute time intervals throughout the 3 hours of the HSAA, with cytopreps made as previously described. However, instead of performing autoradiography, the BrdUrd staining protocol of Royere et al (1988)^131, which reference is specifically incorporated herein by reference for this purpose, will be used. The cytopreps will be fixed in cold methanol-acetic acid (3:1 v/v) followed by an RNase treatment.
The procedure requires that the DNA be partially denatured to expose incorporated BrdUrd to the specific antibody. The anti-BrdUrd antibodies that have been developed so far only bind BrdUrd in single-stranded DNA. The DNA-denaturing step will be done by placing the cytoprep slides in Copeland jars containing distilled water at 95° C. for 10 minutes. The slides will then be transferred into Copeland jars containing ice cold distilled water for 2 minutes and the sperm nuclei stained using anti-BrdUrd antibody (Boehringer Mannheim, mouse IgG) in PBS as the manufacturer's recommended dilution, followed by rhodamine-conjugated Goat anti-mouse IgG. The stained nuclei will be analyzed individually in our image analysis system.
Aphidicolin is described in Ikegami et al (1978)^101. This study will use sperm shown previously to respond normally in the HSAA.
Fluorescence intensities will be determined as previously described and plotted as fluorescence units above background fluorescence.
We will run a duplicate HSAA±aphidicolin (10 μg/ml), except minus tritiated thymidine triphosphate. After incubation, the sperm will be washed in PBS, fixed with 70% ethanol, centrifuged, and the fixative removed. The sperm will be resuspended in one volume of pretreatment solution (0.2M citric acid and 0.5% Tween 20) and incubated at RT for 20 minutes with gentle shaking. Subsequently, 9 volumes of the staining solution containing […] hydrogen phosphate and 5 μM 4', 6-diamidino-2-phenylindole (DAPI) will be added to raise the pH to ~7.0 and stain the DNA. The stained cells are stable for 24-48 hours, so can be shipped and/or transported by PI to Dr. Manimekalai's Laboratory where we will obtain flow cytometric histograms of the DNA content of the sperm nuclei. […] Estimated DNA synthesis for the sperm nuclei incubated in extract containing aphidicolin will be determined, and determine if it is in the 20-30% range (observed using the autoradiographic approach) when compared to the estimated DNA synthesis for the sperm nuclei incubated in extract without aphidicolin. […] Staining approaches that can be followed by quantitative flow cytometry include the use of Hoechst 33342 (64) and acridine orange (96).

Data set [3] has as its system human sperm nuclei. To be noted: extract containing aphidicolin; cited from earlier work.
A further data set relates to DNA polymerase alpha. To be noted: cited from earlier work.
The subject of data set [4] is human sperm nuclei (chromatin decondensation). As to the kind of experiment: Human sperm activation assay (HSAA): chromatin decondensation of chemically treated, permeabilized human sperm in Xenopus laevis egg extract. The data set is classed as cell-based. To be noted: for effect on sperm chromatin decondensation, in words (SEGS): SEGS-treated human sperm in vitro; for effect on decondensation, in words (hydroxylamine alone): 5 μM hydroxylamine; for reversal of SEGS crosslinks / restoration of decondensation, in words: SEGS-treated sperm, then hydroxylamine.

Another data set deals with male reproductive system. The note with it: in vivo; cited from earlier work.

`O[C@H](CS)[C@H](O)CS` (racemic) [DTT, Dithiothreitol]: in data set [1], the “effect of pretreatment on decondensation and DNA synthesis events” value was “enhance the decondensation and DNA synthesis "activation" events”.

For the compound `O=P1(N(CCCl)CCCl)NCCCO1` (stereo not drawn) [cyclophosphamide], the “effect on pre- and postimplantation loss” value with rats was “increasing pre- and postimplantation loss”. The “decondensation of sperm from treated rats” value in the data set with rats (six weeks treatment) was “do not decondense”.

On to `C[C@@]1(CO)[C@H](O)CC[C@@]2(C)[C@H]1CC[C@H]1C[C@@H]3C[C@@]12CC[C@]3(O)CO` [aphidicolin], for which the “% labelled nuclei in extract containing aphidicolin / % labelled nuclei without aphidicolin × 100, expected” value in the data set on human sperm nuclei [2] (aphidicolin 10 μg/ml, 2 hours, autoradiography) is reported as 20-30%. Also, in the data set on human sperm nuclei [2] (extract containing aphidicolin), the DNA synthesis entry is given as “blocked”, the “decondensation of sperm nuclei” value is reported as “normal” and the “recondensation of sperm nuclei” value is given as “normal”. For the same compound, in the data set on human sperm nuclei [3], the “DNA synthesis (previously demonstrated, ref. 17)” value was “blocked”; the “decondensation of sperm nuclei (previously demonstrated, ref. 17)” value is recorded as “normal”; the “recondensation of sperm nuclei (previously demonstrated, ref. 17)” value was “normal”. The “inhibition of DNA polymerase alpha” value in the data set on DNA polymerase alpha is “known inhibitor of DNA polymerase alpha”.

For the compound `O=C(CCC(=O)ON1C(=O)CC(S(=O)(=O)O)C1=O)OCCOC(=O)CCC(=O)ON1C(=O)CC(S(=O)(=O)O)C1=O` (stereo not drawn) [SEGS], the inhibition at 3400 µM in data set [4] (Homo sapiens, Sperm, 3.4 mM SEGS, read-out: sperm in which decondensation was prevented) was > 75%. Also, the “effect on sperm chromatin decondensation, in words (SEGS)” value was “abnormal decondensation responses; also recorded: abnormal chromatin decondensation; also recorded: did not decondense; also recorded: do not decondense” in data set [4] and “block decondensation” in data set [4] (listed as SULFO-EGS). In addition, the “level to which decondensation is inhibited” value in data set [4] (as low as, permeabilized sperm) was 20 % of the control.

In the case of `CS(=O)(=O)OCCCCOS(C)(=O)=O` [Busulfan], the “male reproductive toxicity, in words” value in the data set on male reproductive system is “kills reserve and differentiating operamatogonia and reserve stem cell populations in the testis”.

For the compound `NO` [hydroxylamine], in data set [4], the “effect on decondensation, in words (hydroxylamine alone)” value is “normal decondensation; also recorded: no effect on decondensation” and the “reversal of SEGS crosslinks / restoration of decondensation, in words” value was “restored, normal decondensation; also recorded: able to remove the crosslinker; also recorded: able to reverse most of the crosslinks; also recorded: reversed the damage”. For the same compound, the “sperm decondensed, hydroxylamine given alone” value in data set [4] (5 μM hydroxylamine 5 hours, pH 8.5, 15 minutes in the extract) worked out at 92.0±2.8%. Besides, in data set [4] (listed as Hydroxylamine), the “effect on decondensation, in words (hydroxylamine alone)” value is given as “no effect” and the “reversal of SEGS crosslinks / restoration of decondensation, in words” value is recorded as “restore normal decondensation”. Moreover, the “sperm decondensed after crosslinking with SEGS and then treatment with hydroxylamine” value in data set [4] (3.4 mM SEGS 30 min, then 5 μM hydroxylamine 5 hours, 15 minutes in the extract) was 76% and 76.0±5.9%. Besides, the “effect on decondensation, in words (higher hydroxylamine concentrations)” value in data set [4] (hydroxylamine higher than 5 μM) is recorded as “adverse effect on decondensation”.

As to `O=C(O)c1cc(/N=N/c2ccc(S(=O)(=O)Nc3ccccn3)cc2)ccc1O` [Sulfasalazine], the “male reproductive toxicity, in words” value in the data set with male reproductive system is “reduced sperm count and fertilizing capability affected in treated patients”.
